We go through four compounds from article PMC3085043 (Chemico-biological interactions, 2010).

Positions count from the first letter of the chain named. Where two headings read alike, the source gives them in different places.

The target in data set [1] is dehydrogenase/reductase (SDR family) member 4 (Homo sapiens, UniProt Q9BTZ2). The experiment in a line: Reduction of FAL and GGAL by dehydrogenase/reductase. Format: biochemical.
Data set [2] concerns the target T1, AKR 1C1 (Homo sapiens, UniProt Q04828).
T1 sequence (Q04828 1-323): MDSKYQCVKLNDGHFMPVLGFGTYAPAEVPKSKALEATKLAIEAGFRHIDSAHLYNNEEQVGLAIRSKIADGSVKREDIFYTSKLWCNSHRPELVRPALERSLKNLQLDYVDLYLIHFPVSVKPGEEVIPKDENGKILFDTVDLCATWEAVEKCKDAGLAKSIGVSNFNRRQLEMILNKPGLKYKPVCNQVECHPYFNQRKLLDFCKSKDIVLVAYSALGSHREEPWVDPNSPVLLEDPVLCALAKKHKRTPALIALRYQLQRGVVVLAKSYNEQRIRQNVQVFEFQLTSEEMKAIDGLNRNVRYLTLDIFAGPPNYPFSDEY
The experiment in a line: Kinetic constants for FAL and GGAL reduction, AKR1C1. It is filed as biochemical.

The subject of data set [3] is low-MW FAL-R and GGAL-R from liver. The experiment in a line: FAL-R/GGAL-R activity of low-MW reductase from rat liver. Format: biochemical. Particulars: liver low-MW reductase.
Data set [4] concerns the target T2, purified hepatic FAL-R (AKR1C9) (Rattus norvegicus, UniProt P23457).
T2 sequence (P23457 1-322): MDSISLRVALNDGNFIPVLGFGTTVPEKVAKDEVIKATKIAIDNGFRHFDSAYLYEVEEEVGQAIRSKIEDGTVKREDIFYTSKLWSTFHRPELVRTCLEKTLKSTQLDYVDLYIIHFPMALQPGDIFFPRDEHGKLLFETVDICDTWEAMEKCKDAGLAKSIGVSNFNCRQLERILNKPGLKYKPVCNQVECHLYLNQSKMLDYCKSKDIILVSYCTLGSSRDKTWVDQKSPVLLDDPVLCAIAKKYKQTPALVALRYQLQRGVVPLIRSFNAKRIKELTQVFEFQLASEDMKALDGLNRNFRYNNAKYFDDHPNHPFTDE
The experiment in a line: Reductase activity of hepatic low-MW FAL-R purified to homogeneity. As to conditions: purified liver enzyme.

The target of data set [5] is T3, AKR 1C2 (Homo sapiens, UniProt P52895).
T3 sequence (P52895 1-323): T1 sequence (Q04828 1-323) with T38V, R47H, L54V, C87S, V151M, R170H, Q172L
The experiment in a line: Kinetic constants for FAL and GGAL reduction, AKR1C2. It is filed as biochemical.

Data set [6] deals with T4, AKR 1A1 (Homo sapiens, UniProt P14550).
T4 sequence (P14550 1-325): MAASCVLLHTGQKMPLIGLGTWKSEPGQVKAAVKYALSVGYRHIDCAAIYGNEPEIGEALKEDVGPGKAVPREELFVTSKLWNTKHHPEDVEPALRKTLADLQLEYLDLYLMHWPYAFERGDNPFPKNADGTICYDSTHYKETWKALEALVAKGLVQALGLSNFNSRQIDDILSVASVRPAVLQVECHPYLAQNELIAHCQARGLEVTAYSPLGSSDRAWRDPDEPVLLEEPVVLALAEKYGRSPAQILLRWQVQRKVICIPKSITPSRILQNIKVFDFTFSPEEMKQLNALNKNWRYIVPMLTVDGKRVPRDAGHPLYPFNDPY
The experiment in a line: Kinetic constants for FAL and GGAL reduction, AKR1A1. It is filed as biochemical.

Data set [7] deals with human AKR 1B1. Particulars: cited from earlier work.
For data set [8], the system named is human AKR 1B10. Particulars: 0.1 M potassium phosphate pH 7.4, 0.1 mM NADPH; cited from earlier work.
In data set [9] the target is T5, AKR1C15 (Rattus norvegicus, UniProt D3ZF77). Particulars: NADPH-linked reduction; reported values; cited from earlier work.
Data set [10] deals with human carbonyl reductase 1 (Homo sapiens, UniProt P16152). The experiment in a line: Reduction of FAL and GGAL by carbonyl reductase 1. Format: biochemical.
human carbonyl reductase 1, sequence (P16152 whole entry): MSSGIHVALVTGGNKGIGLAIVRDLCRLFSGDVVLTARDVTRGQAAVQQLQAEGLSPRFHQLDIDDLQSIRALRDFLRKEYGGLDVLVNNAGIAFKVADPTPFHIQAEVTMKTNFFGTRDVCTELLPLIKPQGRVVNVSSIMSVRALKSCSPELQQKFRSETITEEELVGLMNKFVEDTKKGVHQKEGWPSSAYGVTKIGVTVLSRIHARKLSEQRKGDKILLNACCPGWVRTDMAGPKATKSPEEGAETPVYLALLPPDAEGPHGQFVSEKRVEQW
Data set [11] addresses T6, AKR 1C3 (Homo sapiens, UniProt P42330).
T6 sequence (P42330 1-323): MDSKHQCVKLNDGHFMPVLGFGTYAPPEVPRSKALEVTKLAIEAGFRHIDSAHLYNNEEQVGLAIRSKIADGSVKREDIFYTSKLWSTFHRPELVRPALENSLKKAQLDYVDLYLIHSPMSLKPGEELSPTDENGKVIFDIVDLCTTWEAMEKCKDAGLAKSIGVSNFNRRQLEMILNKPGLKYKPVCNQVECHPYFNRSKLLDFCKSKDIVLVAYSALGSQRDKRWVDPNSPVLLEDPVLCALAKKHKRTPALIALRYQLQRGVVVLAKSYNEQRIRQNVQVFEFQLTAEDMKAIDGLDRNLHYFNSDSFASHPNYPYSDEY
The experiment in a line: Kinetic constants for FAL and GGAL reduction, AKR1C3. Format: biochemical. As to conditions: for Km / kcat: 0.1 M potassium phosphate pH 7.4, 0.1 mM NADPH.

For data set [12], the target named is T7, low-MW FAL-R and GGAL-R from stomach, lung and colon (Rattus norvegicus, UniProt D3ZF77).
T7 sequence (D3ZF77 1-324): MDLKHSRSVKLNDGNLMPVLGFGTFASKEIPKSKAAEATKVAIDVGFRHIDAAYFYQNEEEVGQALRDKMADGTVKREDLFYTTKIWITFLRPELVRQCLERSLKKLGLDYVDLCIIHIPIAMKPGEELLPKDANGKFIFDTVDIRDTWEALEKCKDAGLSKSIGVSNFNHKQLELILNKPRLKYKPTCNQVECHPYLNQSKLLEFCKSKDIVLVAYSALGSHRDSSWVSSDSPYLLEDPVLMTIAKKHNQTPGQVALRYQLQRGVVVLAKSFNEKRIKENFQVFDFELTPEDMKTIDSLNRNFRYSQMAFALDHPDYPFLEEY
The experiment in a line: FAL-R/GGAL-R activity of low-MW reductases from rat stomach, lung and colon. As to conditions: extra-hepatic enzymes (stomach, lung, colon). It is filed as biochemical.

In data set [13] the target is microsomal FAL-DH and GGAL-DH (Rattus norvegicus, UniProt P30839). The experiment in a line: NAD+-linked FAL-DH/GGAL-DH activity of solubilized hepatic microsomes. Particulars: solubilized hepatic microsomes, NAD+-linked oxidation. Format: biochemical.
microsomal FAL-DH and GGAL-DH, sequence (P30839 whole entry): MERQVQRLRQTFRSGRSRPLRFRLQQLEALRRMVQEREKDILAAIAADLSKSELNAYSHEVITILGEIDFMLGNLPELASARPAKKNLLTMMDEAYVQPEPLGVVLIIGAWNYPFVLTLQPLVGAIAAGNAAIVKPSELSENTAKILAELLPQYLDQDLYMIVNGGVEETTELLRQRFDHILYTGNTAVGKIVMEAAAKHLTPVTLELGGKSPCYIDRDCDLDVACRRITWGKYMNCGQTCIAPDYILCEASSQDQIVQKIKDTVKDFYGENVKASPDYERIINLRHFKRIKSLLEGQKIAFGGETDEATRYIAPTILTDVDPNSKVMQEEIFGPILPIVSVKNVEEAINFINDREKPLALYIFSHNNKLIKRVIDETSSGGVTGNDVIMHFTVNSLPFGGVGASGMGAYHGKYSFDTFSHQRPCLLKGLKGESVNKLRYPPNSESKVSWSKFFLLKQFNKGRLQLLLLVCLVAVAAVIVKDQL
The target in data set [14] is T8, AKR 1C4 (Homo sapiens, UniProt P17516).
T8 sequence (P17516 1-323): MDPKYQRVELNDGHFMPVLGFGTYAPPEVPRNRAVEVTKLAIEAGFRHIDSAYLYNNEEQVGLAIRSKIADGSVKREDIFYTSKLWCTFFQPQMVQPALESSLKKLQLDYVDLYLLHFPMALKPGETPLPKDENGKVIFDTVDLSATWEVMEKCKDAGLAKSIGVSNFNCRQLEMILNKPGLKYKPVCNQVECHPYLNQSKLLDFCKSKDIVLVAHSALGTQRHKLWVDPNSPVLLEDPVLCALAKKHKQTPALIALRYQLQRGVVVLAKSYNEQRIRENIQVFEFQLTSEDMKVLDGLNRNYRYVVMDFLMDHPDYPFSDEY
The experiment in a line: Kinetic constants for FAL and GGAL reduction, AKR1C4. Particulars: 0.1 M potassium phosphate pH 7.4, 0.1 mM NADPH. It is filed as biochemical.

The target in data set [15] is dicarbonyl-xylulose reductase (Homo sapiens, UniProt Q7Z4W1). The experiment in a line: Reduction of FAL and GGAL by dicarbonyl-xylulose reductase. Format: biochemical.
dicarbonyl-xylulose reductase, sequence (Q7Z4W1 whole entry): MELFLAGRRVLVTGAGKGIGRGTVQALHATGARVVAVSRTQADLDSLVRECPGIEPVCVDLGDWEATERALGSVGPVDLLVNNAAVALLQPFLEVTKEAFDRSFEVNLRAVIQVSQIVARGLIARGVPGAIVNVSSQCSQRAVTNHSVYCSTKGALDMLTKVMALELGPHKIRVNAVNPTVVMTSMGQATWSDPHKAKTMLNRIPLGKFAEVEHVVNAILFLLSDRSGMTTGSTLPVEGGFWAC
Data set [16] concerns the target FOH-DH and GGOH-DH partially purified from liver (Rattus norvegicus, UniProt P06757). Format: biochemical. Particulars: pH 7.4, 2 mM NAD+; mean of three determinations.
Data set [17] deals with HeLa cells. The experiment in a line: Metabolism of [14C] FOH to FA in HeLa cells. It is filed as cell-based.
Data set [18] deals with FOH-DH and GGOH-DH partially purified from lung (Rattus norvegicus, UniProt P41682). It is filed as biochemical. As to conditions: pH 7.4, 2 mM NAD+; mean of three determinations.
FOH-DH and GGOH-DH partially purified from lung, sequence (P41682 whole entry): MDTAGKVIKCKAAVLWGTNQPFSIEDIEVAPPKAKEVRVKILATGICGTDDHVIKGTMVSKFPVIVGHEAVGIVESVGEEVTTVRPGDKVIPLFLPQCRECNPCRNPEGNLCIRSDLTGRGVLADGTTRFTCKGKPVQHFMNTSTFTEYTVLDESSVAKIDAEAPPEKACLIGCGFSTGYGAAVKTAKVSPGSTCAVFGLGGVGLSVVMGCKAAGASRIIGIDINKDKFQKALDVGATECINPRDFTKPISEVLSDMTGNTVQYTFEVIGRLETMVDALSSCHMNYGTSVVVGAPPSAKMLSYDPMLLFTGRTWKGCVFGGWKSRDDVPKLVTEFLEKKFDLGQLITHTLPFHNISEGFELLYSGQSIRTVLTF
The target of data set [19] is FOH-DH and GGOH-DH partially purified from colon (Rattus norvegicus, UniProt P06757). Format: biochemical. Particulars: pH 7.4, 2 mM NAD+; mean of three determinations.
FOH-DH and GGOH-DH partially purified from colon, sequence (P06757 2-376): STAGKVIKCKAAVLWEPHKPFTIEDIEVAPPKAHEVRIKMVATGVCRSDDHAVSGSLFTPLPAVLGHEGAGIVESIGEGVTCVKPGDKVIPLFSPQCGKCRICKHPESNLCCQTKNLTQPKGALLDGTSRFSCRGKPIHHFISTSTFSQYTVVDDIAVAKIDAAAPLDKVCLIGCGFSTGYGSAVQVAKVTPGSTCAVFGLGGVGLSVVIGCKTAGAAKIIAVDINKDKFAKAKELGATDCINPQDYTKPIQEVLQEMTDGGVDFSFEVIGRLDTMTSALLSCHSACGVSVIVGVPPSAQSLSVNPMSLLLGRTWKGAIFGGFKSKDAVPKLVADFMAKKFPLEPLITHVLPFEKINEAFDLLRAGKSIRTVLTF
Data set [20] concerns the target FOH-DH and GGOH-DH partially purified from stomach (Rattus norvegicus, UniProt P41682). It is filed as biochemical. As to conditions: pH 7.4, 2 mM NAD+; mean of three determinations.
Data set [21] has as its target T5, AKR1C15. The experiment in a line: Reduction of isoprenyl aldehydes by AKR1C15. It is filed as biochemical. As to conditions: NADPH-linked reduction.
Data set [22] deals with gastric mucosa RGM1 cells. The experiment in a line: Metabolism of [14C] GGOH to GGA in RGM1 cells. Format: cell-based, rat. Particulars: 1 μM [14C] GGOH.
The mark [23] stands for this setting: 0.1 M potassium phosphate pH 7.4, 0.1 mM NADPH.
Setting [24] is: calculated from the specific activity with 10 μM GGAL.

FOH-DH and GGOH-DH partially purified from stomach, sequence (P41682 whole entry): as the sequence (P41682 whole entry) above
FOH-DH and GGOH-DH partially purified from liver, sequence (P06757 whole entry): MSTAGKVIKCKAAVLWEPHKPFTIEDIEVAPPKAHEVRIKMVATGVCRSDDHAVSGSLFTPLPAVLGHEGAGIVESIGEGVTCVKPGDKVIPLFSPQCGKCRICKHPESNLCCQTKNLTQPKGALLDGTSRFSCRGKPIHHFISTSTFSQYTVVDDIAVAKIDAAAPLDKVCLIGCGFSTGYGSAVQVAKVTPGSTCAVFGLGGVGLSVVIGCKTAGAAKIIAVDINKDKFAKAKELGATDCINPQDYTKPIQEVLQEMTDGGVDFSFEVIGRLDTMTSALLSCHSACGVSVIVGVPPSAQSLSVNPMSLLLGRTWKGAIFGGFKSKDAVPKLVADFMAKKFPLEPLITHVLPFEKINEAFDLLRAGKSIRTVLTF
dehydrogenase/reductase (SDR family) member 4, sequence (Q9BTZ2 whole entry): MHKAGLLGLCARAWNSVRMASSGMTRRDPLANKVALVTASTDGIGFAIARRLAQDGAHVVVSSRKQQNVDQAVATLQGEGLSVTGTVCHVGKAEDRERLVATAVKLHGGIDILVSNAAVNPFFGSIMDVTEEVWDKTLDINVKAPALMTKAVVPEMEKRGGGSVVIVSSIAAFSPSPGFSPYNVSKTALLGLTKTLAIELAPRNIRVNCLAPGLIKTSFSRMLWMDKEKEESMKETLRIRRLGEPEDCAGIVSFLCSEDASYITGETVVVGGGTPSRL

As for `CC(C)=CCCC(C)=CCCC(C)=CC=O` [FAL, farnesal], the “reduction by the enzyme” value in data set [1], in [10] and in data set [15] was “hardly reduced” in each case. Also, the Km is 3.1 µM in data set [2] (setting [23]); 26 µM in data set [3]; 30 µM in data set [4]; 1.1 µM in [5] (setting [23]); 60 µM in data set [6] (setting [23]); 37 µM in data set [7] (setting [23]). The Km in data set [8] is 2.5 µM; in data set [9], 5.6 µM; in data set [11], 2.6 µM; in [12] it was 6 to 8 µM; in [13], 2 µM; in data set [14], 4.7 µM. In addition, the kcat in [2] (setting [23]) was 0.0283 s⁻¹; in data set [5] (setting [23]), 0.03 s⁻¹; in [6] (setting [23]) it was 0.217 s⁻¹; in data set [7] (setting [23]) it was 0.45 s⁻¹; in data set [8], 0.383 s⁻¹; in [11] it was 0.045 s⁻¹. Also, the kcat in data set [14] was found to be 0.0183 s⁻¹. The Vmax in data set [13] was 12 mU/mg.

Take `CC(C)=CCC/C(C)=C/CC/C(C)=C/CO` [FOH, Farnesol]: the “Km values for substrate” value is 0.7 µM in data set [16], 23 µM in data set [18], 1.8 µM in data set [19] and 29 µM in data set [20]. For the same compound, the “metabolic rate from FOH to FA” value in [17] (AKR1C15-overexpressed HeLa cells compared to the control cells) is on record as “greatly decreased”. Further, the “metabolism of FOH” value in data set [17] (control HeLa cells (vector alone), 20 μM [14C] FOH) is recorded as “rapidly converted into FA”.

`CC(C)=CCC/C(C)=C/CC/C(C)=C/CC/C(C)=C/C=O` [GGAL, geranylgeranial]: the “reduction by the enzyme” value in data set [1], in data set [10] and in data set [15] was “hardly reduced” throughout. The “kcat (value in parenthesis)” value was “(0.3) ^b min^−1” in data set [2] (setting [24]), “(0.4) ^b min^−1” in data set [5] (setting [24]), “(0.8) ^b min^−1” in data set [6] (setting [24]) and “(0.3) ^b min^−1” in [7] (setting [24]). In addition, the Km in [3] was 2.1 µM; in [4], 3.9 µM; in data set [8], 0.9 µM; in [11], 0.3 µM; in data set [12], 0.2 to 0.5 µM; in data set [13] it was 0.7 µM. In addition, the Km in data set [14] was 1.1 µM; in [21] it was 0.2 µM. Further, the figures for the kcat in [8], in data set [11] and in [14] were 0.125 s⁻¹, 0.06 s⁻¹ and 0.0147 s⁻¹, respectively. Besides, the “kcat/Km value relative to that for prostaglandin D2” value in data set [11] (higher than for prostaglandin D2, best known endogenous substrate) came out at 12 fold. Moreover, the Vmax in data set [13] was 4.2 mU/mg.

With `CC(C)=CCC/C(C)=C/CC/C(C)=C/CC/C(C)=C/CO` [GGOH, geranylgeraniol], the “metabolism of GGOH” value in data set [22] is “metabolized into GGA”. Besides, the “Km values for substrate” value in data set [16] came to 0.4 µM; in [18], 1.1 µM; in [19], 0.4 µM; in data set [20], 0.8 µM.

A word on the Km: it is the concentration of substrate that gives half-maximal velocity. As a reminder, the kcat is the number of substrate molecules converted per active site and unit of time at saturation.
